# From PubChem BioAssay (NCI)
#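 Cells were grown in 96-well plates and exposed to each compound for 48 hours at five concentrations; endpoints were interpolated linearly between bracketing concentrations, or set to the highest concentration if not reached. GI50 is the concentration that inhibits growth by half. TGI is the concentration that stops growth completely.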
# What was measured:
# Assay in all cases: DTP human tumour cell line panel, 48 h
# M14 melanoma = test system: M14 melanoma
# SK-MEL-28 melanoma = test system: SK-MEL-28 melanoma
# NCI/ADR-RES ovarian = test system: NCI/ADR-RES ovarian
# HL-60(TB) leukemia = test system: HL-60(TB) leukemia
# A498 renal = test system: A498 renal
# SF-268 CNS = test system: SF-268 CNS
# MCF7 breast = test system: MCF7 breast
# LOX IMVI melanoma = test system: LOX IMVI melanoma
# KM12 colon = test system: KM12 colon
# U251 CNS = test system: U251 CNS
SMILES,GI50 (M14 melanoma) [µM],TGI (M14 melanoma) [µM],GI50 (SK-MEL-28 melanoma) [µM],TGI (SK-MEL-28 melanoma) [µM],GI50 (NCI/ADR-RES ovarian) [µM],TGI (NCI/ADR-RES ovarian) [µM],GI50 (HL-60(TB) leukemia) [µM],TGI (HL-60(TB) leukemia) [µM],GI50 (A498 renal) [µM],TGI (A498 renal) [µM],GI50 (SF-268 CNS) [µM],TGI (SF-268 CNS) [µM],GI50 (MCF7 breast) [µM],TGI (MCF7 breast) [µM],GI50 (LOX IMVI melanoma) [µM],TGI (LOX IMVI melanoma) [µM],GI50 (KM12 colon) [µM],TGI (KM12 colon) [µM],GI50 (U251 CNS) [µM],TGI (U251 CNS) [µM]
OC(COc1cccc2ccccc12)CN1CCN(c2ccccc2Cl)CC1 (centres undefined),14.3,29.4,14.5,27.9,13.2,28.6,12.7,44.2,12.3,24.9,13.9,29.9,14.7,28.3,14.2,30.2,11.8,25.9,17.1,31.6
COc1ccc2c(c1)CC[C@@H]1[C@@H]2CC[C@]2(C)C=C(/C=C/C(=O)c3ccccc3)C[C@@H]12,16.6,34.3,16.2,31.7,17.6,35.1,11.2,32.4,13.3,26.3,18.2,36.6,18.6,36.3,14.9,29.9,17.7,39.6,16.6,31.3
CC1(C)[C@@H](OC(N)=O)C=C[C@]2(C=O)[C@H]3CC[C@]4(C)[C@@H](c5ccc(=O)oc5)[C@@H](Cl)C[C@]4(O)C3=CC[C@@H]12,0.00544,0.0124,0.00642,0.0156,0.00609,0.0167,0.00558,0.0121,0.00594,0.0177,0.00301,0.00621,0.00688,0.0287,0.0046,0.00885,0.00743,0.0238,0.00451,0.00854
Cc1c(C(=O)O[C@H]2[C@@H]3[C@H](C)CC[C@H]3[C@]3(C)O[C@@]2(C2CCCCC2)C[C@H]3OC(=O)CO)ccc2ccccc12,7.92,16.7,8.44,15.8,5.65,12.8,9.3,20,0.0173,0.144,3.49,11.8,7.38,15.9,7.45,14.2,8.35,17.4,7.43,13.9
CCOC(=S)SCN1C(=O)c2ccccc2S1(=O)=O,16.4,33.5,3.42,15,14.1,50.8,–,–,19.8,42,29.5,> 100,44.1,> 100,17.1,31.9,35,> 100,18.7,37.3
CCCn1c(N)c(C(=O)CNc2ccc(I)cc2)c(=O)[nH]c1=O,> 100,> 100,> 100,> 100,> 25.3,> 100,10.5,> 100,27.5,> 100,4.55,> 100,0.806,> 100,0.653,> 100,–,–,0.761,> 48.9
CCOc1cc(C(C)(C)C)ccc1C1=N[C@@](C)(c2ccc(Cl)cc2)[C@@](C)(c2ccc(Cl)cc2)N1C(=O)N1CCN(CCS(C)(=O)=O)CC1,3.75,14.6,3.75,14.3,4.09,24.4,2.21,5.22,0.655,5.27,3.82,17.4,0.606,3.75,1.17,3.6,3.33,11.4,2.89,8.52
C1CC[N-]CC1.CC(=N\O)/C(C)=N/O.CC(=N\O)/C(C)=N/O.[CH2-]CCN1CCOCC1.[Co+2],> 100,> 100,> 100,> 100,> 100,> 100,> 100,> 100,> 100,> 100,> 100,> 100,> 100,> 100,> 100,> 100,> 100,> 100,> 100,> 100
COc1c(N2CCN(Cn3c(O)c(N=NC(=O)c4ccncc4)c4cc(F)ccc43)C(C)C2)c(F)cc2c(=O)c(C(=O)O)cn(C3CC3)c12 (centres undefined),32.9,> 50,> 50,> 50,29,> 50,> 50,> 50,13.3,> 50,10.6,38.2,12.4,> 50,24.1,> 50,> 50,> 50,14.7,> 50
Nc1c(C(=O)Nc2cccc(Br)c2)sc2nc3c(cc12)C(O)CCC3 (centres undefined),0.36,> 100,4.43,> 100,0.435,> 48.8,0.24,0.757,0.207,3.91,0.682,> 57.6,0.289,> 64.2,0.726,> 85.1,0.399,> 51,0.487,20.4
Cc1ccc2c(c1)C(=O)c1c-2n(CCCN=[N+]=[N-])c(=O)c2cc([N+](=O)[O-])ccc12,> 100,> 100,> 100,> 100,94,> 100,22,> 100,> 100,> 100,5.59,> 100,50.1,> 100,33.2,> 100,83,> 100,–,–
C=CCCC(=O)N1C=CC(=O)[C@H](O)[C@@H]1/C=C/c1ccccc1,5.17,16.8,17.4,> 32.5,6.38,> 32.5,4.35,28,> 32.5,> 32.5,7.03,> 32.5,6.55,> 32.5,6.28,> 32.5,16,> 32.5,7.44,> 32.5
